Measured values reported in US8802818B2, “Prostaglandin-F2 alpha receptor modulators and uses thereof” (priority 2011, dated 2014).
Square brackets hold non-standard residues; d marks the D form. Peptide text beside a SMILES is read from it. * marks the point of attachment. 3Pal = N[C@@H](Cc1cccnc1)C(=O)O; β3hF = N[C@H](CC(=O)O)Cc1ccccc1; PhAc = O=C(Cc1ccccc1)*; azaGly = NNC(=O)O

Columns and labels:
[1] = molecular target: T1, PGF2α receptor (FP) (Homo sapiens, UniProt P43088); assay: Cell ruffling in FP expressing HEK293 cells; settings: 30 min; for inhibition of FP-induced (PGF2α-mediated) cell ruffling: pretreated 1 μM, then PGF2α 1 μM
T1 sequence (P43088 whole entry, species assumed): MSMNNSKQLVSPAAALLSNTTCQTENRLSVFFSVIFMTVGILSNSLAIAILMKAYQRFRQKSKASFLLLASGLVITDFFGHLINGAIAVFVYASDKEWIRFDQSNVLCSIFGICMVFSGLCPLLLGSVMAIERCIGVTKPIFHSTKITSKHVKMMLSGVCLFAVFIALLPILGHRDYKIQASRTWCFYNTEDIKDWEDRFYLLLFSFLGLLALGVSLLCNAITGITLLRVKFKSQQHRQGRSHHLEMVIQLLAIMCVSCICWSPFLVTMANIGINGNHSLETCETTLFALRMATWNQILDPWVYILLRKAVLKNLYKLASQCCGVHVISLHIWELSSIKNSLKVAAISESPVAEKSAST
Description: Nine fields (50-75 cells/field) per cover slip were quantified to assess circular cellular ruffling.

[2] = tested on: SW480 cells; assay: Migration/invasion of SW480 cells in collagen-coated Boyden chambers; assay type: cell-based, human; settings: 1 μM, 30 min pre-treatment, 16 h; for PGF2α-induced migration of SW480 cells: then 1 μM PGF2α
Method: SW480 cells were re-seeded into collagen-coated Boyden chambers, pretreated with PDC (1 μM, 30 min.), and stimulated or not with 1 μM PGF2α and PGE2 (use to show specificity of analogs for FP). Migration/invasion was assessed after 16 h.
Migration/invasion was assessed after 16 h.

[3] = molecular target: T1, PGF2α receptor (FP); assay: ERK1/2 MAP kinase activation in HEK293 cells stably transfected with HA-FP (western blot); assay type: cell-based; parameters: expressed in transfected cells; host or cells: HEK293; settings: 1 μM azapeptide 30 min pre-treatment, then PGF2α 0.1 μM or 1 μM for 5 min
Method: PGF2αreceptor (FP) expressing cells were serum-starved and pre-treated with 1 μM azapeptides (6-9) for 30 min and then stimulated with 0.1 μM (A) or 1 μM (B) PGF2α for 5 min as described.^24 Blots were quantified by densitometry and plotted compared to the non-stimulated (NS) condition. Results are representative of five independent experiments;
PGF2α was obtained from Cayman. Mouse monoclonal anti-p-ERK and rabbit polyclonal anti-total ERK antibodies were from Cell Signaling. HEK293 cells stably transfected with HA-FP (HA-FP cells)^24 were employed to measure activation of MAP kinase by PGF2α using conventional western blot methods. Briefly, HA-FP cells in 6-well plates were starved for 30 min and pre-treated with 1 μM of an azapeptide (6-9) for 30 min, and then challenged with PGF2α (0.1 μM or 1 μM) for 5 min. Cells were lysed in Laemmli buffer 2× (250 mM Tris-HCl pH 6.8, 2% SDS, 10% Glycerol, 0.01% Bromophenol blue). Lysates were electrophoresed on a 10% SDS-PAGE gels, transferred to nitrocellulose membranes, and probed using mouse anti-p-ERK1/2 and rabbit anti-total-ERK1/2 antibodies. Blots were quantified by densitometry and statistical tests were performed as described.^24

[4] = tested on: PGF2α-induced myometrial contractions; assay: Ex vivo myometrial contraction assay; parameters: species or system mice; settings: mouse myometrial strips; compound given 15 min before PGF2α
Method: FIGS. 7A and 7B show the effects of PDC113.824 and azapeptides 5-9 on mean tension in myometrial preparations induced by PGF2α. At the beginning of each experiment, mean tension of spontaneous myometrial contraction was considered as the basal response. […] Values as mean±SEM of 3-5 experiments for each compound; p<0.05 compared to all values without asterisks.
Ex vivo myometrial contraction assays were performed as previously described^24. Briefly, uteri from mice were obtained from animals immediately after delivery.

[5] = tested on: SW480, HT29, Caco-2 and HTC116 cells; assay: Effect of PGF2α and PGE2 on colorectal cancer cell migration (collagen-coated Boyden chamber); assay type: cell-based, human; settings: for migration of colorectal adenocarcinoma cell lines on stimulation: mediator 1 μM, 16 h, SW480, HT29, Caco-2, HTC116
Method: SW480 (p53 mut, K-Ras mut, APC mut), HT29 (p53 mut, K-Ras WT, APC mut), Caco-2 (p53 mut, K-Ras WT, APC mut), and HTC116 ([…], K-Ras mut, APC mut) cells were re-seeded into Boyden chambers coated with collagen, stimulated or not with FBS (10%), PGF2α (1 μM) or PGE2 (1 μM). Migration/invation was assessed after 16 h. Results are presented as mean±SEM of 3 independent experiments. *p<0.05, **p<0.01, ***p<0.001 compared to non-stimulated (ns) conditions;

Row | Compound | PGF2α-mediated ERK1/2 signaling relative to cells stimulated with PGF2α alone [3] | inhibition of FP-induced (PGF2α-mediated) cell ruffling [1] | PGF2α-induced migration of SW480 cells [2] | further results
1 | O=C(O)C[C@H](Cc1ccccc1)NC(=O)[C@H](Cc1cccnc1)NC(=O)[C@@H]1CCCN1C(=O)NNC(=O)Cc1ccccc1 [Compound 5] (PhAc-[azaGly]P[3Pal][β3hF]-OH) | – | as effective as PDC113.824 in inhibiting FP-induced cell ruffling | significantly impaired the ability of SW480 cells to migrate | –
2 | C=CCN(NC(=O)Cc1ccccc1)C(=O)N1CCC[C@H]1C(=O)N[C@@H](Cc1cccnc1)C(=O)N[C@H](CC(=O)O)Cc1ccccc1 [Compound 8] | hindered | as effective as PDC113.824 in inhibiting FP-induced cell ruffling | significantly impaired the ability of SW480 cells to migrate | –
3 | CN(NC(=O)Cc1ccccc1)C(=O)N1CCC[C@H]1C(=O)N[C@@H](Cc1cccnc1)C(=O)N[C@H](CC(=O)O)Cc1ccccc1 [Compound 9] | hindered | slightly reduced PGF2α-mediated cell ruffling | relatively lower effect | –
4 | O=C(O)C[C@H](Cc1ccccc1)NC(=O)[C@H](Cc1cccnc1)NC(=O)[C@@H]1CC[C@@H]2CC[C@H](NC(=O)Cc3ccccc3)C(=O)N21 [PDC113.824, Phenylacetyl-(3S,6S,9S)-I^2aa-(2S)-(3-pyridyl)alaninyl-(3S)-β-homophenylalanine, reference compound] | – | inhibiting FP-induced cell ruffling | significantly blocked PGF2α-induced migration | reduction of PGF2α-induced myometrial contractions (mean tension) [4]: active; PGE2-induced migration of SW480 cells ([2]; then 1 μM PGE2): without affecting migration induced by PGE2; migration of SW480 cells in the absence of PGF2α and PGE2 [2]: did not affect the migration of SW480 cells
5 | CCCCC[C@H](O)/C=C/[C@H]1[C@H](O)CC(=O)[C@@H]1C/C=C\CCCC(=O)O [PGE2] | – | – | – | migration of colorectal adenocarcinoma cell lines on stimulation [5]: enhanced migration of the four (4) cell lines examined
6 | CCCCC[C@H](O)/C=C/[C@@H]1[C@@H](C/C=C\CCCC(=O)O)[C@@H](O)C[C@H]1O [PGF2α] | – | – | – | membrane ruffle formation, share of FP cells ([1]; PGF2α 1 μM): 65.7 ± 1.6%; potency of PGF2α on migration compared with PGE2 ([5]; SW480 and HT29 cells): as potent as PGE2; migration of colorectal adenocarcinoma cell lines on stimulation [5]: enhanced migration of the four (4) cell lines examined

The next lines start with results.

Row | PGF2α-mediated ERK1/2 signaling relative to cells stimulated with PGF2α alone [3] | Compound | inhibition of FP-induced (PGF2α-mediated) cell ruffling [1] | PGF2α-induced migration of SW480 cells [2] | further results
7 | significantly potentiated | C#CCN(NC(=O)Cc1ccccc1)C(=O)N1CCC[C@H]1C(=O)N[C@@H](Cc1cccnc1)C(=O)N[C@H](CC(=O)O)Cc1ccccc1 [Compound 6, Phenylacetyl-aza-propargylglycinyl-(2S)-prolyl-(2S)-3-(pyridyl)-alaninyl-(3S)-β-homophenylalanine] | slightly reduced PGF2α-mediated cell ruffling | had an effect on cell migration but was not as effective as the others | –
8 | significantly potentiated | O=C(O)C[C@H](Cc1ccccc1)NC(=O)[C@H](Cc1cccnc1)NC(=O)[C@@H]1CCCN1C(=O)N(Cc1ccccc1)NC(=O)Cc1ccccc1 [Compound 7] | as effective as PDC113.824 in inhibiting FP-induced cell ruffling | significantly impaired the ability of SW480 cells to migrate | reduction of PGF2α-induced myometrial contractions (mean tension) [4]: active
